{
  "source": "patent US6605305B2",
  "about": "“Plant drug for treatment of liver disease” (priority 2001, dated 2003)",
  "key": {"ATP": {"system": "ATP", "experiment": "ATP concentration with TET", "type": "biochemical", "conditions": "TET 5 μl/L + SCS (100 μmol/L)", "description": "In present study, the effect of SCS on ATP and oxygen consumption was examined. The experiments of animal and livers were performed as previously described."}, "[1]": {"system": "bovine aortic smooth muscle cell modified LDL", "experiment": "Cell-modified LDL oxidation (MDA)", "type": "cell-based", "conditions": "LDL + 100 μg SCS/ml, 24 hours, 37° C."}, "[2]": {"system": "ethanol-induced gastric mucosal damage", "experiment": "Ethanol-induced gastric mucosal damage", "type": "in vivo, rats", "description": "(§1) The experiment of animal was performed as previously described. Mucosal damage in gastrointestinal tract was induced ethanol or indomethacin administration. In ethanol-treated animals, after 24 hours of fasting, ethanol was given orally (70%, v/v, 10 ml/kg) by means of an oral gastric. Mucosal damage was assessed by measurement of areas with hemorrhagic lesion. In the indomethacin ulcer model, rats were refed for 1 hour after 24 hours of fasting. Thirty minutes later, indomethacin (15 mg/kg) was administered subcutaneously and rats were killed 24 hours later. Mucosal lesions were again measured along the greatest diameter. […] SCS administration was repeated again 6 hours after indomethacin injection."}, "[3]": {"system": "indomethacin induced small intestine mucosal damage", "experiment": "Indomethacin induced small intestine mucosal damage", "type": "in vivo, rats", "description": "as §1"}, "RBL-5": {"system": "RBL-5", "experiment": "NK cell activity of mice (^51Cr release), RBL-5 target cells", "type": "in vivo", "conditions": "oral dose of 100 mg/kg"}, "YAC-1": {"system": "YAC-1", "experiment": "NK cell activity of mice (^51Cr release), YAC-1 target cells", "type": "in vivo", "conditions": "oral dose of 100 mg/kg"}, "complement": {"system": "complement", "experiment": "Effect of SCS on complement", "type": "in vivo, mice"}, "[4]": {"system": "Aflatoxin B1 induced liver cancer", "design": "species or system rats", "conditions": "rat, in vivo"}, "Hepatoma": {"system": "Hepatoma", "experiment": "DNA synthesis of cancer cells ([^3H]TdR incorporation), hepatoma", "type": "in vivo, rats", "description": "(§2) The method of animal and liver was described previously. Ascitric hepatoma, S180-ν, the transplantable 3924 used. After treatment with SCS (100 mg/kg), rats were injected with [^3H]-TdR (10 μc/μmole). Two hours after injection the animals were decapitated and examined. Livers and tumors were rapidly removed and blotted on filter paper. Tumors were carefully dissected free of necrotic, hemorrhagic, and nontumorous material. Tissues were minced with sharp scissors and 2 gm. DNA was prepared from the tissues. The radioactivity of the DNA was determined by liquid scintillation counting.\n(§3) The incorporation of thymidine into DNA ws expressed as cpm/mg of DNA or cpm/gm of tissue."}, "S-180": {"system": "S-180", "experiment": "DNA synthesis of cancer cells ([^3H]TdR incorporation), S-180", "type": "in vivo, rats", "description": "as §2, §3"}, "3924A": {"system": "3924A", "experiment": "DNA synthesis of cancer cells ([^3H]TdR incorporation), 3924A", "type": "in vivo, rats", "description": "as §2, §3"}, "mice": {"system": "mice", "experiment": "Acute toxicity in mice", "type": "in vivo", "text": "a. Route of Administration: intravenous and intraperiotoneal injection\nb. Route of administration: the oral route"}, "rats": {"system": "rats", "experiment": "Subacute toxicity, 30 days", "type": "in vivo"}, "Cytochrome P-450": {"system": "Cytochrome P-450", "conditions": "rat, in vivo"}, "[5]": {"conditions": "intragastric route, 500 mg/kg daily, 30 consecutive days"}, "[6]": {"conditions": "rats, 500 mg/kg daily injected, 30 days"}},
  "note": "Marks after values point to notes of the source that are not given here.",
  "data": [
    {"smiles": "COc1cc2c(c(OC)c1OC)-c1c(cc(OC)c(OC)c1OC)C[C@](C)(O)[C@@H](C)C2", "note": "[SCS, Schisandrin]", "values": [
      {"measurement": "ATP", "setting": "ATP", "value": "35.8 ± 4.0* 100 μmol/L"},
      {"measurement": "MDA (nmol/mg protein, x ± s)", "setting": "[1]", "value": "2.80 ± 0.29", "unit": "nmol/mg protein"},
      {"measurement": "Lesion area (mm^2) gastric antrum", "setting": "[2]; SCS 10 mg/kg", "value": "2.5 ± 0.35* mm^2"},
      {"measurement": "Lesion area (mm^2) gastric antrum", "setting": "[2]; SCS 25 mg/kg", "value": "2.0 ± 0.23** mm^2"},
      {"measurement": "Lesion area (mm^2) gastric antrum", "setting": "[2]; SCS 50 mg/kg", "value": "1.7 ± 0.20** mm^2"},
      {"measurement": "Lesion area (mm^2) Small intestine", "setting": "[3]; SCS 10 mg/kg", "value": "350 ± 38* mm^2"},
      {"measurement": "Lesion area (mm^2) Small intestine", "setting": "[3]; SCS 25 mg/kg", "value": "321 ± 33** mm^2"},
      {"measurement": "Lesion area (mm^2) Small intestine", "setting": "[3]; SCS 50 mg/kg", "value": "295 ± 30** mm^2"},
      {"measurement": "% Specific lysis (mean ± SEM) RBL-5", "setting": "RBL-5; effector/target 50:1", "value": "12.1 ± 1.2", "unit": "%"},
      {"measurement": "% Specific lysis (mean ± SEM) RBL-5", "setting": "RBL-5; effector/target 100:1", "value": "19.8 ± 2.0", "unit": "%"},
      {"measurement": "% Specific lysis (mean ± SEM) YAC-1", "setting": "YAC-1; effector/target 50:1", "value": "45.0 ± 3.6", "unit": "%"},
      {"measurement": "% Specific lysis (mean ± SEM) YAC-1", "setting": "YAC-1; effector/target 100:1", "value": "64.0 ± 7.1", "unit": "%"},
      {"measurement": "C.P.M.", "setting": "complement; treatment group", "value": "480 ± 51"},
      {"measurement": "CPM of T/C", "setting": "complement; treatment versus control", "value": 194.3, "unit": "%"},
      {"measurement": "% of iron-excluding area in liver section", "setting": "[4]", "value": "2.2 ± 0.2", "unit": "%"},
      {"measurement": "Inhibition %", "setting": "[4]", "value": 87.8, "unit": "%"},
      {"measurement": "Tissue inhibition rate (%)", "setting": "Hepatoma; Hepatoma T versus C", "value": 56.4, "unit": "%"},
      {"measurement": "[^3H]TdR into DNA × 10^−3 cm/mg", "setting": "Hepatoma; Hepatoma T, SCS 100 mg/kg", "value": "8.8 ± 0.80 × 10^−3 cm/mg"},
      {"measurement": "Tissue inhibition rate (%)", "setting": "S-180; S-180 T versus C", "value": 43.2, "unit": "%"},
      {"measurement": "[^3H]TdR into DNA × 10^−3 cm/mg", "setting": "S-180; S-180 T, SCS 100 mg/kg", "value": "39.8 ± 5.2 × 10^−3 cm/mg"},
      {"measurement": "Tissue inhibition rate (%)", "setting": "3924A; 3924A t versus C", "value": 52.6, "unit": "%"},
      {"measurement": "[^3H]TdR into DNA × 10^−3 cm/mg", "setting": "3924A; 3924A t, SCS 100 mg/kg", "value": "38.7 ± 4.8 × 10^−3 cm/mg"},
      {"measurement": "LD50", "setting": "mice; intragastric administration", "value": 5200, "unit": "mg/kg"},
      {"measurement": "LD50", "setting": "mice; intraperitoneal injection", "value": 1250, "unit": "mg/kg"},
      {"measurement": "LD50 intravenous versus dose used in clinical trials for human being", "setting": "mice; intravenous", "value": "> 100", "unit": "times"},
      {"measurement": "LD50", "setting": "mice; intravenous injection", "value": 720, "unit": "mg/kg"},
      {"measurement": "Behavior of the animal", "setting": "rats; [5]", "value": "remained normal"},
      {"measurement": "Liver and kidney function, histological picture of important organs", "setting": "rats; [5]", "value": "no abnormalities"},
      {"measurement": "Consumption of water, food and body weights versus control", "setting": "rats; [6]", "value": "did not show any differences"},
      {"measurement": "Depressive, excitatory or sleepiness symptoms", "setting": "rats; [6]", "value": "no depressive, excitatory or sleepiness symptoms"},
      {"measurement": "Microscopic inspection of stomach, liver, spleen and kidneys and their relative weights", "setting": "rats; [6]", "value": "no alteration"},
      {"measurement": "Cytochrome P-450", "setting": "Cytochrome P-450", "value": "2.80 ± 0.30", "unit": "nmol/mg protein"}
    ]}
  ]
}
